Test results as given in patent US9609868B2, “Alkoximino-substituted anthranilic acid diamides as pesticides” (BAYER CROPSCIENCE AKTIENGESELLSCHAFT, priority 2013, dated 2017).

Key:
[1] = system: Phaedon cochleariae; test: Phaedon cochleariae - spray test (PHAECO); format: in vivo; details: application rate 100 g/ha, Chinese cabbage leaf disks
Protocol: Phaedon cochleariae—Spray Test (PHAECO)
(§1) Solvent: 78.0 parts by weight of acetone • • 1.5 parts by weight of dimethylformamide
(§2) Emulsifier: 0.5 parts by weight of alkylaryl polyglycol ether
(§3) To produce a suitable active compound preparation, 1 part by weight of active compound is mixed with the stated amounts of solvent and emulsifier, and the concentrate is diluted with emulsifier-containing water to the desired concentration.
After the desired period of time, the efficacy in % is determined. 100% means that all the beetle larvae have been killed; 0% means that no beetle larvae have been killed.

[2] = system: Spodoptera frugiperda; test: Spodoptera frugiperda - spray test (SPODFR); format: in vivo; details: application rate 100 g/ha, maize leaf disks
Protocol: Spodoptera frugiperda—Spray Test (SPODFR)
as §1, §2, §3
Leaf disks of maize (Zea mays) are sprayed with an active compound preparation of the desired concentration and, after drying, populated with caterpillars of the armyworm (Spodoptera frugiperda).
After the desired period of time, the efficacy in % is determined. 100% means that all the caterpillars have been killed; 0% means that no caterpillars have been killed.

[3] = log P by HPLC on reversed-phase column (C18), EEC directive 79/831 Annex V.A8; format: physicochemical; details: HPLC reversed-phase C18, 43° C., data refer to the E isomer
Protocol: The log P values reported in the tables and Preparation Examples above were determined in accordance with EEC directive 79/831 Annex V.A8 by HPLC (High Performance Liquid Chromatography) using a reversed-phase column (C18). Temperature 43° C. The calibration is effected with unbranched alkan-2-ones (having 3 to 16 carbon atoms), for which the log P values are known.

[4] = system: Myzus persicae; test: Myzus persicae - spray test (MYZUPE); format: in vivo; details: Chinese cabbage leaf disks
Protocol: Myzus persicae—Spray Test (MYZUPE)
Solvent: 78 parts by weight of acetone • • 1.5 parts by weight of dimethylformamide
as §2, §3
Disks of Chinese cabbage leaves (Brassica pekinensis) infested by all stages of the green peach aphid (Myzus persicae) are sprayed with an active compound preparation of the desired concentration.
After the desired period of time, the efficacy in % is determined. 100% means that all the aphids have been killed; 0% means that none of the aphids have been killed.

| SMILES | efficacy (beetle larvae killed) [1] [%] | efficacy (caterpillars killed) [2] [%] | log p ([3]; Table A) | efficacy (aphids killed) ([4]; application rate 100 g/ha) [%] | log p ([3]; Table B) | log p ([3]; Table C) | efficacy (aphids killed) ([4]; application rate 20 g/ha) [%] |
| --- | --- | --- | --- | --- | --- | --- | --- |
| CON=Cc1cc(C)c(NC(=O)c2cc(C(F)(F)F)nn2-c2ncccc2Cl)c(C(=O)N(C)NC(=O)OC)c1 (mixture of isomers) [A-48] | 100 | 100 | 3.00 | 100 |  |  |  |
| CON=Cc1cc(C)c(NC(=O)c2cc(OC(F)F)nn2-c2ncccc2Cl)c(C(=O)NN(C)C(=O)OC)c1 (mixture of isomers) [A-49] | 100 | 100 | 2.60 | 90 |  |  |  |
| CON=Cc1cc(C)c(NC(=O)c2cc(Br)nn2-c2ncccc2Cl)c(C(=O)NC2COC2)c1 (mixture of isomers) [B-03] | 100 | 100 |  | 100 | 2.44 |  |  |
| CON=Cc1cc(C)c(NC(=O)c2cc(C(F)(F)F)nn2-c2ncccc2Cl)c(C(=O)NC2C[S+]([O-])C2)c1 (mixture of isomers) [B-05] | 100 | 100 |  | 90 | 2.51 |  |  |
| CON=Cc1cc(C)c(NC(=O)c2cc(C(F)(F)F)nn2-c2ncccc2Cl)c(C(=O)NC2CSC2)c1 (mixture of isomers) [B-06] | 100 | 100 |  | 90 | 3.46 |  |  |
| CON=Cc1cc(C)c(NC(=O)c2cc(OC)nn2-c2ncccc2Cl)c(C(=O)NC2COC2)c1 (mixture of isomers) [B-10] | 100 | 100 |  | 100 | 2.04 |  |  |
| CON=Cc1cc(C)c(NC(=O)c2cc(C(F)F)nn2-c2ncccc2Cl)c(C(=O)NC2COC2)c1 (mixture of isomers) [B-11] | 100 | 100 |  | 100 | 2.31 |  |  |
| CON=Cc1cc(C)c(NC(=O)c2cc(OC)nn2-c2ncccc2Cl)c(C(=O)NC(C)C)c1 (mixture of isomers) [C-32] | 100 | 100 |  | 90 |  | 3.22 |  |
| CNC(=O)c1cc(C=NOC)cc(C)c1NC(=O)c1cc(OC)nn1-c1ncccc1Cl (mixture of isomers) [C-33] | 100 | 100 |  | 90 |  | 2.70 |  |
| CON=Cc1cc(C)c(NC(=O)c2cc(OC)nn2-c2ncccc2Cl)c(C(=O)NC(C)(C)C)c1 (mixture of isomers) [C-37] | 100 | 100 |  | 90 |  | 3.71 |  |
| C#CCOC(=O)NNC(=O)c1cc(C=NOC)cc(C)c1NC(=O)c1cc(Br)nn1-c1ncccc1Cl [A-08] | 100 | 100 | 2.58 | 100 |  |  |  |
| COCCOC(=O)NNC(=O)c1cc(C=NOC)cc(C)c1NC(=O)c1cc(C(F)(F)F)nn1-c1ncccc1Cl [A-20] | 100 | 100 | 2.74 | 90 |  |  |  |
| C=CCOC(=O)NNC(=O)c1cc(C=NOC)cc(C)c1NC(=O)c1cc(C(F)(F)F)nn1-c1ncccc1Cl [A-21] | 100 | 100 | 3.04 | 90 |  |  |  |
| CON=Cc1cc(C)c(NC(=O)c2cc(C(F)(F)F)nn2-c2ncccc2Cl)c(C(=O)NNS(C)(=O)=O)c1 [A-23] | 100 | 100 | 2.63 | 100 |  |  |  |
| CON=Cc1cc(C)c(NC(=O)c2cc(C(F)(F)F)nn2-c2ncccc2Cl)c(C(=O)NC(C)CSC)c1 (stereo not shown) [C-05] | 100 | 100 |  | 100 |  | 3.72 |  |
| CON=Cc1cc(C)c(NC(=O)c2cc(OC(C)C)nn2-c2ncccc2Cl)c(C(=O)NC(C)C)c1 [C-07] | 100 | 100 |  | 90 |  | 3.29 |  |
| CON=Cc1cc(C)c(NC(=O)c2cc(OC(C)C)nn2-c2ncccc2Cl)c(C(=O)NC(C)C2CC2)c1 (stereo not shown) [C-08] | 100 | 100 |  | 90 |  | 3.65 |  |

| SMILES | efficacy (beetle larvae killed) [1] [%] | efficacy (caterpillars killed) [2] [%] | log p ([3]; Table A) | efficacy (aphids killed) ([4]; application rate 100 g/ha) [%] | log p ([3]; Table B) | log p ([3]; Table C) | efficacy (aphids killed) ([4]; application rate 20 g/ha) [%] |
| --- | --- | --- | --- | --- | --- | --- | --- |
| CON=Cc1cc(C)c(NC(=O)c2cc(OC(C)C)nn2-c2ncccc2Cl)c(C(=O)NC(C)(C)C)c1 [C-09] | 100 | 100 |  | 100 |  | 3.74 |  |
| CCOc1cc(C(=O)Nc2c(C)cc(C=NOC)cc2C(=O)NC)n(-c2ncccc2Cl)n1 [C-10] | 100 | 100 |  | 100 |  | 2.48 |  |
| CCOc1cc(C(=O)Nc2c(C)cc(C=NOC)cc2C(=O)NC(C)(C)C)n(-c2ncccc2Cl)n1 [C-11] | 100 | 100 |  | 100 |  | 3.42 |  |
| CON=Cc1cc(C)c(NC(=O)c2cc(OCC(F)F)nn2-c2ncccc2Cl)c(C(=O)NC2CC2)c1 [C-17] | 100 | 100 |  | 90 |  | 2.91 |  |
| CON=Cc1cc(C)c(NC(=O)c2cc(OCC(F)F)nn2-c2ncccc2Cl)c(C(=O)NC(C)(C)C)c1 [C-21] | 83 | 100 |  | 100 |  | 3.43 |  |
| CNC(=O)c1cc(C=NOC)cc(C)c1NC(=O)c1cc(OC)nn1-c1ncccc1Cl [C-22] | 100 | 100 |  | 100 |  | 2.15 |  |
| CON=Cc1cc(C)c(NC(=O)c2cc(OC)nn2-c2ncccc2Cl)c(C(=O)NC2CC2)c1 [C-23] | 100 | 100 |  | 100 |  | 2.40 |  |
| CON=Cc1cc(C)c(NC(=O)c2cc(OC)nn2-c2ncccc2Cl)c(C(=O)NC(C)C2CC2)c1 (stereo not shown) [C-25] | 100 | 100 |  | 100 |  | 3.02 |  |
| CON=Cc1cc(C)c(NC(=O)c2cc(OC)nn2-c2ncccc2Cl)c(C(=O)NC(C)(C)C)c1 [C-26] | 100 | 100 |  | 100 |  | 3.06 |  |
| CCOc1cc(C(=O)Nc2c(C)cc(C=NOC)cc2C(=O)NC(C)C2CC2)n(-c2ncccc2Cl)n1 (stereo not shown) [C-27] | 100 | 100 |  | 90 |  | 3.38 |  |
| CON=Cc1cc(C)c(NC(=O)c2cc(C(F)F)nn2-c2ncccc2Cl)c(C(=O)NC(C)(C)C)c1 [C-35] | 100 | 100 |  | 90 |  | 3.34 |  |
| CON=Cc1cc(C)c(NC(=O)c2cc(C(F)F)nn2-c2ncccc2Cl)c(C(=O)NC(C)C2CC2)c1 (stereo not shown) [C-36] | 100 | 100 |  | 90 |  | 3.29 |  |
| CCNC(=O)c1cc(C=NOC)cc(C)c1NC(=O)c1cc(OC)nn1-c1ncccc1Cl [C-47] | 100 | 100 |  | 100 |  | 2.41 |  |
| C#CCNC(=O)c1cc(C=NOC)cc(C)c1NC(=O)c1cc(OC)nn1-c1ncccc1Cl [C-48] | 100 | 100 |  | 100 |  | 2.40 |  |
| CON=Cc1cc(C)c(NC(=O)c2cc(CF)nn2-c2ncccc2Cl)c(C(=O)NC(C)C)c1 [C-49] | 100 | 100 |  | 90 |  | 2.65 |  |
| CCNC(=O)c1cc(C=NOC)cc(C)c1NC(=O)c1cc(CF)nn1-c1ncccc1Cl [C-53] | 100 | 100 |  | 90 |  | 2.39 |  |
| COCCNC(=O)c1cc(C=NOC)cc(C)c1NC(=O)c1cc(CF)nn1-c1ncccc1Cl [C-56] | 100 | 100 |  |  |  | 2.27 | 90 |
